We go through three molecules from patent publication US20200291018A1, “TAM KINASE INHIBITORS” (SYROS PHARMACEUTICALS, INC., priority 2017, published 2020).

A word on the IC50: it is the midpoint of a concentration-inhibition curve.

One assay concerns the target T1, FLT3 (Homo sapiens, UniProt P36888).
T1 sequence (P36888 27-993): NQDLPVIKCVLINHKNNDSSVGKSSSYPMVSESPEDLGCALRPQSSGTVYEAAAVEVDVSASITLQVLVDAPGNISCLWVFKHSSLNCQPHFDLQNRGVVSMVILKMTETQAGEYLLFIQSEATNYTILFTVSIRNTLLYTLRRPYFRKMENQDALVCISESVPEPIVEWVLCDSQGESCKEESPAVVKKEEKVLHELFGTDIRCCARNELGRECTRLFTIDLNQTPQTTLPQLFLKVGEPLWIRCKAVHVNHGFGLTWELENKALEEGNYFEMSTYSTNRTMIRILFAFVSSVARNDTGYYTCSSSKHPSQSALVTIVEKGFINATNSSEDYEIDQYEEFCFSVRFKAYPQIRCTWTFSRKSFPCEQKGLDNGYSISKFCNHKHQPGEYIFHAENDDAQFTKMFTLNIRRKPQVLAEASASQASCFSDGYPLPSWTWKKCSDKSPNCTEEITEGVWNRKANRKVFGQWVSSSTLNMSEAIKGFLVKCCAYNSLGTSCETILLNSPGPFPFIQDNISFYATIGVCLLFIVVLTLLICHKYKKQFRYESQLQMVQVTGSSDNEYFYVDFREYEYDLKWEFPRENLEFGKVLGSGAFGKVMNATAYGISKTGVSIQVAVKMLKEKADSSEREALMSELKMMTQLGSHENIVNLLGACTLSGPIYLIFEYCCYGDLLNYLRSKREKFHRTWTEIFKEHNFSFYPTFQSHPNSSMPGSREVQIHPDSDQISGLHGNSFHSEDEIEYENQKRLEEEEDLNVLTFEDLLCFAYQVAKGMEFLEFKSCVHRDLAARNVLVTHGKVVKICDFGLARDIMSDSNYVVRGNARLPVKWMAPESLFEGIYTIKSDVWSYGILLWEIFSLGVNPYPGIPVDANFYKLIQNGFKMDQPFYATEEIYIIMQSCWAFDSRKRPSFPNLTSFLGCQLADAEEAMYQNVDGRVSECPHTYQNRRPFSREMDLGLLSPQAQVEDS
As to the kind of experiment: TR-FRET kinase activity assay, FLT3. In kind it is biochemical. Particulars: ATP at Km, 60 minutes. In a few lines:
(§1)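 Buffer 50 mM HEPES pH 7.5/10 mM MgCl2/1 mM EGTA/0.01% Brij 35/1 mM DTT, RT. Km ATP per kinase, labeled peptide, 60 min; 12.5 mM EDTA stop; Eu-Ab 30 min dark; TR-FRET → IC50.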
A general note: TR-FRET usually uses a lanthanide donor and a delayed reading to cut background.

In the next assay the target is T2, MERTK (Homo sapiens, UniProt Q12866).
T2 sequence (Q12866 21-999): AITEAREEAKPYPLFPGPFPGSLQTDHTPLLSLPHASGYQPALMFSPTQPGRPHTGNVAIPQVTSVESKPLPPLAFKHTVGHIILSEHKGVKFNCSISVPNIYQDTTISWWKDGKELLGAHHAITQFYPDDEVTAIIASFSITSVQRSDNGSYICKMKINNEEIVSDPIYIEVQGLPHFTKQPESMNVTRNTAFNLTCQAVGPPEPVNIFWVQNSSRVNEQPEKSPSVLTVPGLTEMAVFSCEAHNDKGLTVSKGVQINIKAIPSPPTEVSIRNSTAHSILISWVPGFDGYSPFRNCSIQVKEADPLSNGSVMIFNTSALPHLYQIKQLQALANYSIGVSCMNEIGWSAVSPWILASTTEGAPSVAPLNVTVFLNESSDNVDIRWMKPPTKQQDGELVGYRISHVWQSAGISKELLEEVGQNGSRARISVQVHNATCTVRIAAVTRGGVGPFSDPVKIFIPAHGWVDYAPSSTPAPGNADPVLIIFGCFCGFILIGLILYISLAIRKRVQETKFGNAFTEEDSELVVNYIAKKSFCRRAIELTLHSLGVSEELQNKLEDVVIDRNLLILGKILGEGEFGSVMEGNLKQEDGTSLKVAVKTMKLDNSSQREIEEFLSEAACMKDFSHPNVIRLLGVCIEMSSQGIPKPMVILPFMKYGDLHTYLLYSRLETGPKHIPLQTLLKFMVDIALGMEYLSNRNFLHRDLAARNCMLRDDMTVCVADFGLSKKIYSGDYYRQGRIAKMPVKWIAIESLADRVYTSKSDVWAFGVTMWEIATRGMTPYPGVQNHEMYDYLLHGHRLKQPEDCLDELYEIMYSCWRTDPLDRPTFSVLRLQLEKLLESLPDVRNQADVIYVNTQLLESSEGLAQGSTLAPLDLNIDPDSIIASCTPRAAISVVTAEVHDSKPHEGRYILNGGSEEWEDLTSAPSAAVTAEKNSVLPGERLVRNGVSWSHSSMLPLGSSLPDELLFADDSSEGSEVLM
As to the kind of experiment: TR-FRET kinase activity assay, MERTK. Format: biochemical. Particulars: for IC50: TR-FRET activity assay, ATP at Km, 60 minutes, read-out: Mer IC50; for Mer/Flt3 ratio (FLT3 IC50/Mer IC50): ratio calculated as FLT3 IC50/Mer IC50. In outline: as §1

Molecule `COC(=O)N[C@H]1C[C@@H](Oc2ncc([C@H]3CC[C@H](O)CC3)c3nc(N[C@@H](C)CC(F)(F)F)ncc23)C1` [Compound 435] came in with an IC50 against FLT3 of at most 100 nM. Besides, at MERTK, the IC50 was at most 100 nM and the “Mer/Flt3 ratio (FLT3 IC50/Mer IC50)” value is “+++ (a ratio of >100)”.
As to `CC(=O)N1[C@@H]2CC[C@H]1C[C@H](Oc1ncc([C@H]3CC[C@H](O)CC3)c3nc(N[C@@H](C)CC(F)(F)F)ncc13)C2` [Compound 436], on FLT3, the IC50 lay within 100 to 1000 nM. Moreover, at MERTK, the IC50 is at most 100 nM and the “Mer/Flt3 ratio (FLT3 IC50/Mer IC50)” value was “+++ (a ratio of >100)”.
For `C[C@@H](CC(F)(F)F)Nc1ncc2c(O[C@@H]3C[C@H]4CC[C@@H](C3)N4C3COC3)ncc([C@H]3CC[C@H](O)CC3)c2n1` [Compound 437] the same measures were 100 to 1000 nM, at most 100 nM and “+++ (a ratio of >100)”.
